{"source": "patent US8039501B2", "about": "“Synephrine derivatives useful as anti-inflammatory agents” (Universiteit Gent, priority 2005, dated 2011)", "key": {"[1]": {"molecular_target": "T1, glucocorticoid receptor (GR) (Homo sapiens, UniProt P04150)", "T1 construct": "endogenous in cells; host or cells: primary fibroblast-like synoviocytes from RA patients", "T1 sequence (P04150 1-777)": "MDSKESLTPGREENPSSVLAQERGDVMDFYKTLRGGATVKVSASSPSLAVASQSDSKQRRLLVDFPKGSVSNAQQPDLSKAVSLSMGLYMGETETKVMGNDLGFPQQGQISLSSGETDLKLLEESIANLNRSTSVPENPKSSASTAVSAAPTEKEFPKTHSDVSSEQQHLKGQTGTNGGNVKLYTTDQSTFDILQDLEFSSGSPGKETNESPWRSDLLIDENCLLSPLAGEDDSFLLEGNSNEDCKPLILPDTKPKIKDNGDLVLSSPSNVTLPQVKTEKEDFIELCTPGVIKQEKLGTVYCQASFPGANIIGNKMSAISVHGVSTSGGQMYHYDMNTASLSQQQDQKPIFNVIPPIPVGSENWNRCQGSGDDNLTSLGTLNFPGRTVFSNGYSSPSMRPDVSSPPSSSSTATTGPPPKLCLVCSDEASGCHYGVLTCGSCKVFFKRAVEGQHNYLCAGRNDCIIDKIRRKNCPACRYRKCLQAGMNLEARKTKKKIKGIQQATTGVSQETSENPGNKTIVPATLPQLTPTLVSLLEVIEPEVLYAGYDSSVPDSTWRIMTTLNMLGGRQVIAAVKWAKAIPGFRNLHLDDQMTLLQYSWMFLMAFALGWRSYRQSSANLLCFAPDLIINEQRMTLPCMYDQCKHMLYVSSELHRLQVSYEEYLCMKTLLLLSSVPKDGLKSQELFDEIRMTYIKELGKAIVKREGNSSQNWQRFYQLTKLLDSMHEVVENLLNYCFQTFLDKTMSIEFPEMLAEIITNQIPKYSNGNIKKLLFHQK", "assay": "Western blot of homologous down-regulation of GR in FLS", "assay_type": "cell-based", "settings": "10 μM, 3, 6, 9 or 24 hours, FIG. 22A", "protocol": "CpdA was synthesized as described previously. […] They were sacrificed and livers were isolated. […] Gene expression of HPRT was used for normalization. […] Gene expression of HPRT was used for normalization. […] Gene expression of HPRT was used for normalization. Statistical significance was determined by one way anova. […] Gene expression of HPRT was used for normalization. […] Gene expression of HPRT was used for normalization. Statistical significance was determined by one way anova. […] Statistical significance was determined with a Kruskal-Wallis test.\nWestern blot analysis was performed on total protein extracts with an anti-GR(H-300) antibody. The detection of ERK was used as a loading control. After 8 days of treatment liver samples were taken from the PBS, DEX (20 μg) or CpdA (300 μg) treated DBA/1 mice (FIG. 22B). Q-PCR was performed for the detection of GR in the different samples. Statistical significance was determined with a Mann-Whitney Test. FLS were pre-treated with solvent, DEX (1 μM) or CpdA (10 μM) for 1 hour (set-up 1) or 24 hours (set-up 2), as indicated in the figures. Afterwards, TNF (2000 units/ml) was added for 6 h. Western blot analysis was performed on total extracts with an anti-GR(H-300) antibody (FIG. 19A). Detection of ERK was used as a loading control. […] Statistical significance was determined by one way anova. […]"}, "[2]": {"assay": "Serum ELISA of osteoclast and osteoblast markers in DBA/1 mice", "settings": "300 μg daily, 8 days", "description": "DBA/1 mice—Male 8- to 12-wk-old DBA/1 mice were purchased from Janvier and housed following institutional guidelines. All animal procedures were approved by the institutional animal care and ethics committee. […] The human IL-6 and IL-8 cytoset were purchased from BioSource International, Inc. For the detection of TRAP5b in DBA/1 mice serum we used the Mouse TRAP Assay, purchased from Immunodiagnostic systems limited. The osteocalcin EIA kit was purchased from Biomedical Technologies, Inc. All assays were performed according to the manufacturer's instructions."}}, "data": [{"smiles": "CNCC(Cl)c1ccc(OC(C)=O)cc1.Cl", "note": "(stereo not drawn) [CpdA, 2-(4-acetoxyphenyl)-2-chloro-N-methyl-ethylammonium chloride]", "values": [{"measurement": "Ligand-induced down-regulation of the glucocorticoid receptor (GR)", "setting": "[1]", "value": "does not evoke a ligand-induced down-regulation of the glucocorticoid receptor (GR)"}, {"measurement": "Amount of active osteoclasts (TRAP5b) in serum", "setting": "[2]; FIG. 21A", "value": "does not alter the amount of active osteoclasts (TRAP5b)"}, {"measurement": "Osteocalcin levels in mouse serum", "setting": "[2]; FIG. 21B", "value": "does not significantly alter the osteocalcin levels in mouse serum"}]}]}
